Data reported in patent publication US20260139314A1, “COMPOSITION AND METHOD FOR PREDICTING SULFONYLUREA DEPENDENCY USING GIPR MARKER” (Seoul National University Hospital, priority 2022, published 2026).

Legend:
[1] = system: INS1 rat insulinoma cells; experiment: Insulin secretion stimulated with low-dose SU (50 nM glimepiride, ELISA); assay type: cell-based; details: non-diabetic conditions; GIPR inhibitor 100 nM, 24 h; 50 nM glimepiride for 30 minutes
Experimental: INS1 rat insulinoma cells were transfected with siGipr and siNS (80 nM) and stimulated for insulin secretion with low-dose SU (50 nM glimepiride for 30 minutes). Insulin secretion was measured using an ELISA kit.
(a) Physiological condition (b) Diabetic condition simulated by pre-treating with 15-mM glucose and 150-μM palmitic acid for 24 hours (glucolipotoxicity).
(§1) INS1 rat insulinoma cells were treated with a GIPR inhibitor (rat GIP(3-30), 100 nM, 24 h) and the inhibition of insulin secretion by GIP was confirmed. Insulin secretion was stimulated with low-dose SU (50 nM glimepiride for 30 minutes) and measured using an ELISA kit.
Next, the SU response was examined based on Gipr suppression. […] However, under diabetic conditions—chronic exposure to high glucose and fatty acids (glucolipotoxicity)—Gipr suppression increased insulin secretion in response to low-dose SU (FIG. 4b).

[2] = system: INS1 rat insulinoma cells; experiment: GIP-induced insulin secretion (ELISA); assay type: cell-based; details: GIPR inhibitor 100 nM, 24 h
Experimental: INS1 rat insulinoma cells were transfected with 80-nM siRNA for Gipr and negative control.
(c) ELISA: Insulin secretion induced by GIP treatment (50 nM for 1 hour) was attenuated by siGipr. • siGipr, siRNA for Gipr; siNS, siRNA for negative control; siRNA, small interfering RNA; NS, no significant difference
as §1
Experiments were conducted to suppress the expression of the rat Gipr gene, which shares the same gene sequence as human GIPR.

rat GIP(3-30)
Insulin secretion by SU [1]: trend of enhanced insulin secretion | Inhibition of insulin secretion by GIP [2]: confirmed
